Experimental data: patent US20100204328A1, “Solution and Method to Reduce, Treat and/or Prevent Oxidative Stress and Cell Activation” (priority 2006, published 2010)
Where two headings read alike, the source gives them in different places.

Key:
[1] = test system: WBC; assay: Reduction of ROS during perfusion through hollow fiber minimodule; format: cell-based, human; conditions: scavenger added to dialysis fluid, counter current, single pass, FIG. 19
Method: WBC were isolated from human blood donation. Cells were stimulated by PMA and after one hour incubation a fluorescence dye (H2DCF-DA) was added to the cells and incubated for another 25 mins. The cell suspension was pumped single pass through a hollow fiber minimodule. On the dialysate pathway dialysis fluid with or without radical scavenger was pumped in counter current. Fluorescence was measured at the dialyzer inlet and outlet and fluorescence reduction in the filter was calculated. Negative control: PBS-buffer without radical scavenger as dialysis fluid, see FIG. 19.

[2] = test system: Interleukin 6; assay: IL-6 expression in LPS-incubated whole blood by flow cytometry; format: cell-based; conditions: whole blood with LPS, substance added directly or after 2 hrs, measured after 4 hrs; for expression of IL6: FIG. 21
Excerpt: Further we analyzed intracellular IL-6 concentrations—indicator of proinflammatory cell activation—by flow cytometry and by this we were also able to analyze the percentage of […]/activated cells, see FIG. 20. Shown are the results for intracellular IL-6. Further data were generated to show: • (1) That use of LPS as primary stimulus instead of PMA (i.e. other cell activation pathway) is inducing similar activation pattern. LPS could stand for a septic/bacterial infection environment instead of a pro-oxidative environment. • (2) That additional and more complete interventions in the pathophysiological sequence through scavengers reduces also the expression of cellular surface markers like CD11b (an indicator of enhanced adhesion to vascular walls).
Whole blood was incubated with LPS; ethyl pyruvate and N-acetyl-cysteine, respectively were added directly or after 2 hrs. Expression of Interleukin 6 was measured after 4 hrs with flow cytometer, see FIG. 21.

[3] = test system: CD11b; assay: CD11b expression of granulocytes in LPS-incubated whole blood by flow cytometry; format: cell-based; conditions: LPS 10/100 U/ml 45 minutes, then substance 4 hrs, FIG. 22
Method: Whole blood was incubated with LPS (10/100 U/ml) for 45 minutes. Ethyl pyruvate, N-acetyl-cysteine and gluconate were added to the stimulated system and incubated for 4 hrs. CD11b Expression of granulocytes was measured with flow cytometry, see FIG. 22.

[4] = test system: isolated Leukocytes; assay: Design-of-experiments screening of antioxidants: intracellular free radical formation in PMA-stimulated isolated leukocytes (96-well plate, fluorescence kinetics); format: cell-based, human; conditions: model, other substances on a medium level, FIG. 9
Method: An often discussed therapeutic intervention is the addition of substances with antioxidative properties to balance the oxidative/antioxidative system. In our work we performed a systematic screening of such antioxidants, see FIG. 2. The screening was done in a 96-well-plate setup where isolated Leukocytes from healthy donors were pre-incubated with antioxidants for 1 hour. The chosen substances were N-acetyl-cysteine (NAC), gluconic acid (GA), glutathione (GSH) and vitamin […] fluorescence dye was added as a marker for intracellular free radical formation. Afterwards the cells were stimulated by phorbol-myristate-acetate (PMA) and free radical formation was recorded as fluorescence signal over time. The dye in this assay is membrane-permeable and non-fluorescent when it is added. Diffusing once into the cell, enzymes convert it to a readily oxidizable fluorescence dye and the intracellular formation of free radicals can be measured. In order to perform a systematic screening of these substances we would have had to carry out a lot of experiments. Due to the lack of blood donors we chose the methodology of design of experiments, see FIG. 3. Here an experimental plan is generated on statistical basis and a mathematical model can be established. In our case we chose a Centrum Composite Circumscribed-Design (CCC), which is a combination of a full-factorial and a Central Composite-Design (CCD) with a center point. Every single experiment was carried out three times. Besides saving many experiments an additional advantage is the consideration of interactions and quadratic influences. The software tool Mode generates the experimental plan where the combinations of the substances vary according to the chosen CCC-Design, see FIG. 4. Out of the measured fluorescence kinetics a free-radical-inhibition-ratio was calculated and implemented. A ratio of 1 relates to 100% inhibition of free radical formation. The obtained data was fitted by multiple linear regression analysis, see FIG. 5. The influence of single substances, its quadratic terms and interactions between the substances are considered in the shown equation. The quality of the model fit is defined in the summary plot. R^2 stands for regression, Q^2 for prediction quality, MV for model validity and Rep for reproducibility. […] The model has to be further optimised. To identify a model-weakness a closer look into the model is required.

[5] = test system: White blood cells (WBC); assay: Inhibition of cell activation/ROS-generation by addition of free radical scavengers (H2DCF-DA fluorescence); format: cell-based, human; conditions: WBC preincubated 30-60 minutes, PMA or LPS stimulus, FIG. 15
Method: Other macromolecules with SH sites could also be applied.
White blood cells (WBC) were isolated from freshly donated human whole blood. This was done by collecting whole blood from healthy donors on Heparin anticoagulation. Leukocytes were isolated out of the whole blood with the help of an isolation gradient (Polymorphprep). Isolated Leukocytes were diluted in PBS or RPMI 1640 cell culture media and a concentration of 2×10^6/ml was chosen. The cells were stored at 37° in 5% CO2. The cells were preincubated with the substances at 37° C. for 30-60 minutes. Afterwards the cells were stimulated with 50 ng/ml PMA or 30 EU/ml LPS. For ROS-measurement a fluorescence dye (dichlorodihydrofluorescein-diacetate, H2DCF-DA) was added at 10 μM final concentration. The cells were incubated with the substance, the fluorescence dye and the activator for 2 hrs and the fluorescence intensity kinetics was measured over time. To compare the result between two substances, the fluorescence intensity at a certain time point, e.g. 30 minutes) was recorded. For comparison the fluorescence at a certain time is shown in the diagram in FIG. 15.

[6] = test system: ROS; assay: ROS-inhibition with pre-incubation versus post-incubation (pre-stimulation) of cells; format: cell-based; conditions: single substances, FIGS. 31 to 34
Method: Therefore, the ROS-inhibition was tested in two different applications:
1. Pre-incubation (activation of cells after incubation with a substance or combination of substances according to the invention)
2. Post-incubation (addition of a substance or a combination of substances according to the invention after cell activation)
All substances or combinations thereof were tested in the same concentration ranges as in the screening of the combinations as described before.

[7] = test system: WBC; assay: Inhibition of cell activation/ROS-generation by free radical scavengers via the membrane; format: cell-based, human; conditions: low flux membrane, incubation 60 mins, PMA, FIG. 17
Method: WBC were isolated from human blood donation. Cells were separated by a membrane from the second compartment which comprises a buffer-system containing a radical scavenger (incubation time 60 mins). Afterwards a fluorescence dye (H2DCF-DA) was added to the cells and incubated for 25 mins. Finally stimulation of WBCs was performed by PMA and fluorescence was measured over time, see FIG. 17.
Positive control: with stimulus (2nd compartment PBS-buffer),
Negative control: without stimulus (2nd compartment PBS-buffer)

[8] = cited from earlier work
[9] = FIG. 25; cited from earlier work

## CCOC(=O)C(C)=O [ethyl pyruvate]
[1]
  free radicals on the blood side in the dialyzer and in the intracellular compartment: free radicals are reduced
[2]
  number of IL-6 positive cells: reduce the number of IL-6 positive cells
  expression of IL6: reduce the expression of IL6
[3]
  expression of CD11b adhesion marker: reduce expression of CD11b adhesion marker

## N[C@@H](CCC(=O)N[C@@H](CS)C(=O)NCC(=O)O)C(=O)O [glutathione]
[4]
  influence of the concentration of a single substance on the ROS-Inhibition ratio: negative gradient with increasing concentration
[5]
  free radical formation: able to inhibit free radical formation
[6]
  ROS inhibition: 55-65%

## O=C(O)[C@H](O)[C@@H](O)[C@H](O)[C@H](O)CO [gluconic acid]
[4]
  influence of the concentration of a single substance on the ROS-Inhibition ratio: quadratic character
[5]
  free radical formation: able to inhibit free radical formation
[7]
  free radical formation, scavenger acting through the membrane: capable to inhibit
[3]
  expression of CD11b adhesion marker: reduce expression of CD11b adhesion marker
[6]
  ROS inhibition: 15-30%

## O=C1O[C@H]([C@@H](O)CO)C(O)=C1O [vitamin C]
[4]
  influence of the concentration of a single substance on the ROS-Inhibition ratio: negative gradient with increasing concentration
[6]
  ROS inhibition: 20-80%

## CC(=O)N[C@H]1C(O)O[C@H](CO)[C@@H](O)[C@@H]1O (stereo partly drawn) [N-acetyl-glucosamine]
[5]
  free radical formation: able to inhibit free radical formation

## CC(=O)N[C@@H](CS)C(=O)O [N-acetyl-cysteine]
[4]
  influence of the concentration of a single substance on the ROS-Inhibition ratio: quadratic character
[5]
  free radical formation: able to inhibit free radical formation
[1]
  free radicals on the blood side in the dialyzer and in the intracellular compartment: free radicals are reduced
[2]
  number of IL-6 positive cells: reduce the number of IL-6 positive cells
  expression of IL6: reduce the expression of IL6
[3]
  expression of CD11b adhesion marker: reduce expression of CD11b adhesion marker
[6]
  ROS inhibition: 60-80%
[8]; application as an antidote in acute situations
  tolerability of rather high plasma levels: well tolerated
[8]; intravenous application, compared with oral
  plasma levels: higher plasma levels
[8]; oral application
  bioavailability: poor bioavailability
  plasma levels: 3000 to 30000 nM
[9]
  plasma level at which first beneficial effects could be shown: 12 µM
